According to ChEMBL document CHEMBL1130105 (J Med Chem, 1997):

These compounds were tested against T1, Cholecystokinin receptor type A (Rattus norvegicus, UniProt P30551) (assay: Inhibition of ligand binding to Cholecystokinin type A receptor from rat pancreatic tissue.).
T1 sequence (P30551 whole entry): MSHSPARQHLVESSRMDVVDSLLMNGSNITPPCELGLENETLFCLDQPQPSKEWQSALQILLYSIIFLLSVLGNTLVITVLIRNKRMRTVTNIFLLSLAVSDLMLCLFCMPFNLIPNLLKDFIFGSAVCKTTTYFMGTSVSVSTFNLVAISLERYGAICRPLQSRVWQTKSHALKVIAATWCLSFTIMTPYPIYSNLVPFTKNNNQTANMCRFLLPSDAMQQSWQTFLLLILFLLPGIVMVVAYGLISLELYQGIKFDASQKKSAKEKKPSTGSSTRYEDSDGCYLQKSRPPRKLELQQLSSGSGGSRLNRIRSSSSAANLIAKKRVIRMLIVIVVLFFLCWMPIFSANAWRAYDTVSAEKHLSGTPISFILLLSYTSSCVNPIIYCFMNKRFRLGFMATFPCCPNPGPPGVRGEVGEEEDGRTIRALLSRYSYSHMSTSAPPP

| Structure (SMILES) | IC50 |
| --- | --- |
| Cc1cccc(NC(=O)N[C@@H]2N=C([C@H]3CCC(C)(C)CCN3)c3ccccc3N(C)C2=O)c1 | 1390 nM |
| CCN(CC)C(=O)CN1C(=O)[C@H](NC(=O)Nc2cccc(C)c2)N=C(c2cccc[n+]2C)c2ccccc21 | 1750 nM |
| CCCN1C(=O)[C@H](NC(=O)Nc2cccc(C)c2)N=C([C@H]2CCC(C)(C)CCN2C)c2ccccc21 | 3540 nM |
| CCCN1C(=O)[C@H](NC(=O)Nc2cccc(C)c2)N=C([C@H]2CC(C)(C)CCN2)c2ccccc21 | 3090 nM |
| CCCN1C(=O)[C@H](NC(=O)Nc2cccc(C)c2)N=C([C@H]2CCC(C)(C)CCN2)c2ccccc21 | 1510 nM |
| CCCN1C(=O)[C@H](NC(=O)Nc2cccc(C)c2)N=C([C@H]2CCCCN2C)c2ccccc21 | 2090 nM |
| CCCN1C(=O)[C@H](NC(=O)Nc2ccc3c(c2)CCC3)N=C([C@H]2CC(C)(C)CCN2)c2ccccc21 | 4020 nM |
| CCCN1C(=O)[C@H](NC(=O)Nc2cccc(C)c2)N=C([C@H]2CCCCN2)c2ccccc21 | 3000 nM |
| CCCN1C(=O)[C@H](NC(=O)Nc2cccc(C)c2)N=C([C@@H]2CCCCN2)c2ccccc21 | 3000 nM |
| CN1C(=O)[C@H](NC(=O)Nc2ccc3c(c2)CCC3)N=C([C@H]2CCC(C)(C)CCN2)c2ccccc21 | 6490 nM |

The compounds below were run against Gastrin/cholecystokinin type B receptor (Cavia porcellus) (assay: Inhibition of ligand binding to Cholecystokinin type B receptor from guinea pig cortical membrane.).

| Structure (SMILES) | IC50 |
| --- | --- |
| CCN(CC)C(=O)CN1C(=O)C(NC(=O)Nc2cccc(C)c2)N=C(c2ccccn2)c2ccccc21 (configuration not stated) | 0.56 nM |
| Cc1cccc(NC(=O)NC2N=C(c3ccccn3)c3ccccc3N(C)C2=O)c1 (configuration not stated) | 66 nM |
